# Test results: patent US7795290B2 (Genentech, Inc., priority 2004, dated 2010)
# Molecular target: T1, AKT1 (Homo sapiens, UniProt P31749)
# T1 construct: purchased Upstate 14-276
# Test: HTS ATP-utilizing enzyme assay, off-chip mobility-shift (Caliper HTS 250)
# Assay type: biochemical
# Conditions: kinase named = inhibitory activity/selectivity; test compound 10 μM; active = greater than three-sigma from mean
# In short: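 AKT1 activity was measured by off-chip mobility shift (Caliper HTS 250) as the ratio of peptide substrate to phosphorylated product. Test compound was at 10 μM, with 2.5 h incubation at 20–22° C. EDTA wells served as 100% control and DMSO wells as 0%. Hits were called at three-sigma limits.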
# T1 sequence (P31749 whole entry): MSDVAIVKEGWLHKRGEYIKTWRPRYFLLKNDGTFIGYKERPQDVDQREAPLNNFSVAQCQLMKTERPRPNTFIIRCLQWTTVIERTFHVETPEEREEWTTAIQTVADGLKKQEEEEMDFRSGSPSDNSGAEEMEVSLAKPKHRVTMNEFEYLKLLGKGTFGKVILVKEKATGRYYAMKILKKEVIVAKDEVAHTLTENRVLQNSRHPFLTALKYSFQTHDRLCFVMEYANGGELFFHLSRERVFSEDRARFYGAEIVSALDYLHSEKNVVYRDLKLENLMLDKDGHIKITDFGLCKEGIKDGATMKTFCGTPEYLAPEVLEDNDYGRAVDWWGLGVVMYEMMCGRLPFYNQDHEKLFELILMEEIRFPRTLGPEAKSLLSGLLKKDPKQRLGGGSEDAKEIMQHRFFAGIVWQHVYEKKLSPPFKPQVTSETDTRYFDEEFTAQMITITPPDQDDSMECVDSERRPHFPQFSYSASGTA
row,SMILES,Activity
1,COc1ccc(-c2csc(N(CCCN3CCOCC3)C(=O)c3ccc(Br)s3)n2)cc1 [5-bromo-N-(4-(4-methoxyphenyl)thiazol-2-yl)-N-(3-morpholinopropyl)thiophene-2-carboxamide],AKT1
2,COc1ccc(-c2csc(N(CCCN3CCOCC3)C(=O)c3cccc(Cl)n3)n2)cc1 [6-chloro-N-(4-(4-methoxyphenyl)thiazol-2-yl)-N-(3-morpholinopropyl)picolinamide],AKT1
3,COc1ccc(-c2csc(N(CCCN3CCOCC3)C(=O)c3sccc3Br)n2)cc1 [3-bromo-N-(4-(4-methoxyphenyl)thiazol-2-yl)-N-(3-morpholinopropyl)thiophene-2-carboxamide],AKT1
4,COc1ccc(-c2csc(N(CCCN3CCOCC3)C(=O)c3ccco3)n2)cc1 [N-(4-(4-methoxyphenyl)thiazol-2-yl)-N-(3-morpholinopropyl)furan-2-carboxamide],AKT1

# Molecular target: T2, DYRK2 (Homo sapiens, UniProt Q92630)
# T2 sequence (Q92630 1-601): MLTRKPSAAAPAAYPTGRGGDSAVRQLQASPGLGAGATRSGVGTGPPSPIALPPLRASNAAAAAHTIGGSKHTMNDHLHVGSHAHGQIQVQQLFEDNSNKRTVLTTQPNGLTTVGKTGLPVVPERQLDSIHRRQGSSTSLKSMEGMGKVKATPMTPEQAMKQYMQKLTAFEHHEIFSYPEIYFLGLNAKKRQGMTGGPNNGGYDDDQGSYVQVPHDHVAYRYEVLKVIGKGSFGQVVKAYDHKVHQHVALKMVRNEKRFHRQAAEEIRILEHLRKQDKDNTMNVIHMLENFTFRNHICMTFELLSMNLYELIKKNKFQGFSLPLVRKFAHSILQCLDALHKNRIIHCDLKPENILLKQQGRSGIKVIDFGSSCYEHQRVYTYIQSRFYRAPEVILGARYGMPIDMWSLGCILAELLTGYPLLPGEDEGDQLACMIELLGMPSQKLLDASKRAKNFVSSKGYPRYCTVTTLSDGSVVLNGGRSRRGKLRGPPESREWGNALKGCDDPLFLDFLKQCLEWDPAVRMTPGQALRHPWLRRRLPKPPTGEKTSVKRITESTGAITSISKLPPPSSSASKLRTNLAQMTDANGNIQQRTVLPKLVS
# Test: as above
# Assay type: biochemical
# Conditions: kinase named = inhibitory activity/selectivity; test compound 10 μM; active = greater than three-sigma from mean
# From the text: (§1) The following procedures describe the reagent and plate preparation for a HTS of an ATP-utilizing enzyme, such as a protein kinase, run in an off-chip mobility-shift assay format. The following provides an HTS protocol for running a protein kinase HTS screen on a Caliper HTS 250 microfluidics system. The following parameters are dependent on the protein kinase used and can be determined by one skilled in the art as part of a typical assay development process. For example, the peptide substrate used can be identified from the current literature, by screening a peptide library of potential protein kinase substrates, or by other applicable means accepted in the field.
# (§2) Assays to determine the kinase inhibitory activity of chemical entities of the present disclosure were performed using a Caliper HTS 250 microfluidics device, Greiner U-bottom assay plates, a Multidrop for transfer of reagents, and Biomek FX (AMNCBM03) software. Initially, 2.4 μL of a 1 mM solution of a test compound in 100% DMSO was added to a well of the Greiner U-bottom plate. A single Greiner U-bottom plate having 24×16 wells could include multiple test compounds. Next, 40 μL of 1.06× Assay Buffer was added to each well of the assay plate. Using the Biomek FX, 10 μL of 0.5 M EDTA was added by the span-8 to wells, indicated as 100% Control and 2.4 μL of 100% DMSO was added by the span-8 to wells, indicated as 0% Control. Using the Multidrop, 10 μL of 2.5× Enzyme Buffer, followed by 10 μL of 2.5× Substrate Buffer was added to each well of the assay plate. The total reaction volume in each well was 25 μL, and the concentration of the test compound was 10 μM. The assay plate was incubated for 2.5 hrs at 20° C. to 22° C. After the incubation period, using the Multidrop, 45 μL of 1.55× Termination Buffer was added to each well of the assay plate to stop the reaction. The inhibition of the ATP-utilizing enzyme, such as a particular protein kinase, was determined by measuring the ratio of the peptide substrate to phosphorylated product for each well of the assay plate using the Caliper HTS 250 system.
# (§3) The use of three-sigma statistical limits represents a conservative method for declaring potential hits among targets. The three-sigma activity, as well as the mean population activity, can be different for each target enzyme. This method has an expected false positive rate, from an in-control measurement process, of […].
# (§4) Each chemical entity listed in Table 2 was tested for protein kinase inhibitory activity according to the biological assays and definitions of protein kinase inhibitory activity as described herein. For each exemplary compound listed in Table 2, the inhibitory activity for at least one protein kinase according to the biological assays and definitions of protein kinase inhibitory activity as described herein is indicated.
row,SMILES,Activity
1,COCCN(C(=O)CCC(=O)O)c1nc(-c2ccc(OC)cc2)cs1 [4-((2-methoxyethyl)(4-(4-methoxyphenyl)thiazol-2-yl)amino)-4-oxobutanoic acid],DYRK2
2,CCN(C(=O)CCC(=O)O)c1nc(-c2ccc(OC)cc2)cs1 [4-(ethyl(4-(4-methoxyphenyl)thiazol-2-yl)amino)-4-oxobutanoic acid],DYRK2
3,COCCN(C(C)=O)c1nc(-c2ccc(OC)cc2)cs1 [N-(2-methoxyethyl)-N-(4-(4-methoxyphenyl)thiazol-2-yl)acetamide],DYRK2
4,COc1ccc(-c2csc(N(CCc3ccccc3)C(=O)CCC(=O)O)n2)cc1 [4-((4-(4-methoxyphenyl)thiazol-2-yl)(phenethyl)amino)-4-oxobutanoic acid],DYRK2
5,COc1ccc(-c2csc(N(CCCN3CCOCC3)C(=O)Cc3cccc(Cl)c3)n2)cc1 [2-(3-chlorophenyl)-N-(4-(4-methoxyphenyl)thiazol-2-yl)-N-(3-morpholinopropyl)acetamide],DYRK2
6,COc1ccc(-c2csc(N(CC3CCCO3)C(=O)CCC(=O)O)n2)cc1 (centres unmarked) [4-((4-(4-methoxyphenyl)thiazol-2-yl)((tetrahydrofuran-2-yl)methyl)amino)-4-oxobutanoic acid],DYRK2
7,"COc1ccc(-c2csc(N(CCc3ccc(OC)c(OC)c3)C(=O)CCC(=O)O)n2)cc1 [4-((3,4-dimethoxyphenethyl)(4-(4-methoxyphenyl)thiazol-2-yl)amino)-4-oxobutanoic acid]",DYRK2
8,COc1ccc(-c2csc(N(CCCN3CCOCC3)C(=O)c3ccco3)n2)cc1 [N-(4-(4-methoxyphenyl)thiazol-2-yl)-N-(3-morpholinopropyl)furan-2-carboxamide],DYRK2
9,CCC(=O)N(CC)c1nc(-c2ccc(OC)cc2)cs1 [N-ethyl-N-(4-(4-methoxyphenyl)thiazol-2-yl)propionamide],DYRK2
10,CCC(=O)N(CC1CCCO1)c1nc(-c2ccc(OC)cc2)cs1 (centres unmarked) [N-(4-(4-methoxyphenyl)thiazol-2-yl)-N-((tetrahydrofuran-2-yl)methyl)propionamide],DYRK2
11,CCC(=O)N(CCCOC)c1nc(-c2ccc(OC)cc2)cs1 [N-(4-(4-methoxyphenyl)thiazol-2-yl)-N-(3-methoxypropyl)propionamide],DYRK2
12,COc1ccc(-c2csc(N(C)C(C)=O)n2)cc1 [N-(4-(4-methoxyphenyl)thiazol-2-yl)-N-methylacetamide],DYRK2
13,COc1ccc(-c2csc(N(Cc3ccccc3)C(=O)CCC(=O)O)n2)cc1 [4-(benzyl(4-(4-methoxyphenyl)thiazol-2-yl)amino)-4-oxobutanoic acid],DYRK2
14,"COc1ccc(-c2csc(N(CCCN3CCOCC3)C(=O)CC(C)(C)C)n2)cc1 [N-(4-(4-methoxyphenyl)thiazol-2-yl)-3,3-dimethyl-N-(3-morpholinopropyl)butanamide]",DYRK2
15,COCCCN(C(=O)CCC(=O)O)c1nc(-c2ccc(OC)cc2)cs1 [4-((4-(4-methoxyphenyl)thiazol-2-yl)(3-methoxypropyl)amino)-4-oxobutanoic acid],DYRK2
16,CCN(CC)CCCN(C(=O)COc1ccc(C)cc1)c1nc(-c2ccc(OC)cc2)cs1 [N-(3-(diethylamino)propyl)-N-(4-(4-methoxyphenyl)thiazol-2-yl)-2-(p-tolyloxy)acetamide],DYRK2
17,COc1ccc(-c2csc(N(CCCN3CCOCC3)C(=O)c3conc3C)n2)cc1 [N-(4-(4-methoxyphenyl)thiazol-2-yl)-3-methyl-N-(3-morpholinopropyl)isoxazole-4-carboxamide],DYRK2
18,COc1ccc(-c2csc(N(C)C(=O)CCC(=O)O)n2)cc1 [4-((4-(4-methoxyphenyl)thiazol-2-yl)(methyl)amino)-4-oxobutanoic acid],DYRK2
19,COc1ccc(-c2csc(N(CCCN3CCOCC3)C(C)=O)n2)cc1 [N-(4-(4-methoxyphenyl)thiazol-2-yl)-N-(3-morpholinopropyl)acetamide],DYRK2
20,COc1ccc(-c2csc(N(Cc3ccco3)C(=O)CCC(=O)O)n2)cc1 [4-((furan-2-ylmethyl)(4-(4-methoxyphenyl)thiazol-2-yl)amino)-4-oxobutanoic acid],DYRK2

# Molecular target: T3, ZAP70 (Homo sapiens, UniProt P43403)
# T3 sequence (P43403 1-619): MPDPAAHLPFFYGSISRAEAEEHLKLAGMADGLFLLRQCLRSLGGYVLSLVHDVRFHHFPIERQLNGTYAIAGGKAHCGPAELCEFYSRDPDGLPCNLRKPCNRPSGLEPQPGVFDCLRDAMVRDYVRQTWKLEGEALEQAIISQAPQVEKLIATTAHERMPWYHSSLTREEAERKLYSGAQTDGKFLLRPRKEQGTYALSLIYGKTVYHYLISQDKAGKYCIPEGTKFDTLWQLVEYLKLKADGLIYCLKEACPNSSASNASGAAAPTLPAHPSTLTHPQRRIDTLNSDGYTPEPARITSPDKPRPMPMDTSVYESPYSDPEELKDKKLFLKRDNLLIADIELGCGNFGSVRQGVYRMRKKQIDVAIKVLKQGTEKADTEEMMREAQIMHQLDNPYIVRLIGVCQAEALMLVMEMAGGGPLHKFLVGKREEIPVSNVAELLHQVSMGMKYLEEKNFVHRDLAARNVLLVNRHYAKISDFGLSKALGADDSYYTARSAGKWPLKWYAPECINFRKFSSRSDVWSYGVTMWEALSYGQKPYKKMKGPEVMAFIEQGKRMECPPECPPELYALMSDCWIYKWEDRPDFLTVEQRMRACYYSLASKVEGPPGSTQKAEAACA
# Test: as above
# Assay type: biochemical
# Conditions: kinase named = inhibitory activity/selectivity; test compound 10 μM; active = greater than three-sigma from mean
# From the text: as §1, §2, §3, §4
row,SMILES,Activity
1,COc1ccc(-c2csc(N(CCCN3CCOCC3)C(=O)c3ccc(Br)s3)n2)cc1 [5-bromo-N-(4-(4-methoxyphenyl)thiazol-2-yl)-N-(3-morpholinopropyl)thiophene-2-carboxamide],ZAP70
2,COc1ccc(-c2csc(N(CCCN3CCOCC3)C(=O)c3cccc(Cl)n3)n2)cc1 [6-chloro-N-(4-(4-methoxyphenyl)thiazol-2-yl)-N-(3-morpholinopropyl)picolinamide],ZAP70
3,"COc1ccc(-c2csc(N(CCCN3CCOCC3)C(=O)c3nsc(Cl)c3Cl)n2)cc1 [4,5-dichloro-N-(4-(4-methoxyphenyl)thiazol-2-yl)-N-(3-morpholinopropyl)isothiazole-3-carboxamide]",ZAP70
4,COc1ccc(-c2csc(N(CCCN3CCOCC3)C(=O)c3sccc3Br)n2)cc1 [3-bromo-N-(4-(4-methoxyphenyl)thiazol-2-yl)-N-(3-morpholinopropyl)thiophene-2-carboxamide],ZAP70
5,COc1ccc(-c2csc(N(CCCN3CCOCC3)C(=O)c3ccccc3C#N)n2)cc1 [2-cyano-N-(4-(4-methoxyphenyl)thiazol-2-yl)-N-(3-morpholinopropyl)benzamide],ZAP70
6,COc1ccc(-c2csc(N(CCCN3CCOCC3)C(=O)c3conc3C)n2)cc1 [N-(4-(4-methoxyphenyl)thiazol-2-yl)-3-methyl-N-(3-morpholinopropyl)isoxazole-4-carboxamide],ZAP70
7,COc1ccc(-c2csc(N(CCCN3CCOCC3)C(=O)c3ccc(C(C)=O)s3)n2)cc1 [5-acetyl-N-(4-(4-methoxyphenyl)thiazol-2-yl)-N-(3-morpholinopropyl)thiophene-2-carboxamide],ZAP70

# Molecular target: CHEK2 (Homo sapiens, UniProt O96017)
# Sequence (O96017 whole entry): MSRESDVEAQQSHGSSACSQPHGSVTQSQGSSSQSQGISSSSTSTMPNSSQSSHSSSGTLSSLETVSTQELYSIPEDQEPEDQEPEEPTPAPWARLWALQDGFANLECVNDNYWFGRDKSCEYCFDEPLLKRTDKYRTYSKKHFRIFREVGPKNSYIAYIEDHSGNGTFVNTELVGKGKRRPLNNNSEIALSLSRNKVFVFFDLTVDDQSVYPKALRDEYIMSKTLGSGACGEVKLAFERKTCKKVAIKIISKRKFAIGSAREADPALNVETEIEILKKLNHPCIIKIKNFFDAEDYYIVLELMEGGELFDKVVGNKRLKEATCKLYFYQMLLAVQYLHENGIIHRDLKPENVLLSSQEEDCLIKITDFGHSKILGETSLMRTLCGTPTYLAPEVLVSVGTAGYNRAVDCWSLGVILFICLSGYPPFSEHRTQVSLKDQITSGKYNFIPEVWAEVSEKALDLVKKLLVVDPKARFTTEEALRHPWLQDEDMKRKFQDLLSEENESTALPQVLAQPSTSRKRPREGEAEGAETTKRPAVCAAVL
# Test: as above
# Assay type: biochemical
# Conditions: kinase named = inhibitory activity/selectivity; test compound 10 μM; active = greater than three-sigma from mean
# From the text: as §1, §2, §3, §4
row,SMILES,Activity
1,"CCN(CC)CCCN(C(=O)c1ccccc1Cl)c1nc(-c2cc(OC)ccc2OC)cs1 [2-chloro-N-(3-(diethylamino)propyl)-N-(4-(2,5-dimethoxyphenyl)thiazol-2-yl)benzamide]",CHEK2
